Results from US20190134005A1 (BioMarin Pharmaceutical Inc., priority 2016, published 2019).
pIC50: −log10 of the molar value. Read-outs that look alike come from different tables or passages of the source.

Molecular target: T1, human CGT (Homo sapiens, UniProt Q16880)
T1 sequence (Q16880 21-541): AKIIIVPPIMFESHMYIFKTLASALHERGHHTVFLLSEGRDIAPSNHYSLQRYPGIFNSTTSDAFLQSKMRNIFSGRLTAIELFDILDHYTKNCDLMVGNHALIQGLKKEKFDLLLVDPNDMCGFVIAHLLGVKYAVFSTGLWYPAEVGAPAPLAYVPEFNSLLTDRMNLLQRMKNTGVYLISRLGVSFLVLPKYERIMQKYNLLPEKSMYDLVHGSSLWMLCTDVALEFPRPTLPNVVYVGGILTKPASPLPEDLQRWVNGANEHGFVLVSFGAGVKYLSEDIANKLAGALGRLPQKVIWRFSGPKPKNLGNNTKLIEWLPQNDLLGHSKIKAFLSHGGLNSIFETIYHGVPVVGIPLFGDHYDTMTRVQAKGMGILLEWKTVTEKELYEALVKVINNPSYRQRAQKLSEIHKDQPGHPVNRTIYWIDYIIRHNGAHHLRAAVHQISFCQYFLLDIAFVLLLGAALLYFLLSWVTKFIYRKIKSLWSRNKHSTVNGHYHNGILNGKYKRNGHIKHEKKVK
Experiment: Assay 1: CGT Enzymatic Assay (RapidFire/MS/MS, 0.01% Tween 80)
Format: biochemical
Details: Table 1, Compounds of Formula (I) and Formula (II), CGT enzymatic assay, read-out: IC50

[1] = C6-NBD-dihydro-galactosylceramide readout

Row | pIC50 [1] | pIC50 | Compound
1 |  | > 6.00 | CCC[C@H]1N(c2ccc(Br)cc2)C(=O)N(c2ccc(Br)cc2)C1(O)c1cccc(CC)c1 (stereo partly drawn) [Compound 88-2, (5R)-1,3-bis(4-bromophenyl)-4-(3-ethylphenyl)-4-hydroxy-5-propylimidazolidin-2-one]
2 |  | < 4.30 | COC(=O)C1(O)[C@H](C)N(c2ccc(Br)cc2)C(=O)N1c1ccc(Br)cc1 (single isomer, unassigned) [Compound 84-1]
3 |  | > 6.00 | CCC1(O)[C@H](c2ccccc2)N(c2ccc(Br)cc2)C(=O)N1c1ccc(Br)cc1 (some centres unmarked) [Example 45-1]
4 |  | > 6.00 | O=C1N(c2ccc(Cl)cc2)[C@]2(CCOC2)[C@](O)(c2cccc(OC(F)(F)F)c2)N1c1ccc(Cl)cc1 [Compound 234-1, (4R,5S)-1,3-bis(4-chlorophenyl)-4-hydroxy-4-(3-(trifluoromethoxy)phenyl)-7-oxa-1,3-diazaspiro[4.4]nonan-2-one]
5 |  | > 6.00 | CC[C@H]1N(c2ccc(Cl)cc2)C(=O)N(c2ccc(Cl)cc2)C1(O)c1cccc(C(F)(F)F)c1 (stereo partly drawn) [Compound 80-2, (5R)-1,3-bis(4-chlorophenyl)-5-ethyl-4-hydroxy-4-(3-(trifluoromethyl)phenyl)imidazolidin-2-one]
6 |  | > 6.00 | O=C1N(c2ccc(Cl)cc2)[C@H](C2CCC2)C(O)(c2cccc(OC(F)(F)F)c2)N1c1ccc(Cl)cc1 (stereo partly drawn) [Example 191-2, (5R)-1,3-bis(4-chlorophenyl)-5-cyclobutyl-4-hydroxy-4-(3-(trifluoromethoxy)phenyl)imidazolidin-2-one]
7 |  | 4.30 to 5.00 | Cc1cccc([C@@]2(C)C(O)N(c3ccc(Cl)cc3)C(=O)N2c2ccc(Cl)cc2)c1 (single isomer, unassigned) [Example 222-1]
8 |  | > 6.00 | COC[C@H]1N(c2ccc(Cl)cc2)C(=O)N(c2ccc(Cl)cc2)C1(O)c1cccc(OC(F)F)c1 (stereo partly drawn) [Compound 238-2, (5R)-1,3-bis(4-chlorophenyl)-4-(3-(difluoromethoxy)phenyl)-4-hydroxy-5-(methoxymethyl)imidazolidin-2-one]
9 |  | 5.00 to 6.00 | C[C@]1(C(F)(F)F)N(c2ccc(Cl)cc2)C(=O)N(c2ccc(Cl)cc2)C1(O)c1cccc(OC(F)(F)F)c1 (single isomer, unassigned) [Example 159-1]
10 |  | > 6.00 | CCC[C@@H]1N(c2ccc(Br)cc2)C(=O)N(c2ccc(Br)cc2)C1(O)c1cccc(C)c1 (stereo partly drawn) [Compound 96-1, (5S)-1,3-bis(4-bromophenyl)-4-hydroxy-5-propyl-4-(m-tolyl)imidazolidin-2-one]
11 |  | > 6.00 | CC[C@@H]1N(c2ccc(Br)cc2)C(=O)N(c2ccc(Br)cc2)C1(O)c1cccc(C(F)(F)F)c1 (stereo partly drawn) [Compound 67-1, (5S)-1,3-bis(4-bromophenyl)-5-ethyl-4-hydroxy-4-(3-(trifluoromethyl)phenyl)imidazolidin-2-one]

The remaining lines, values behind:

Row | Compound | pIC50 [1] | pIC50
12 | N#Cc1ccc(N2C(=O)N(c3ccccc3)C(O)(c3cccc(OC(F)(F)F)c3)C23CCC3)cc1 (centres unmarked) [Example 336, 4-(8-hydroxy-6-oxo-7-phenyl-8-(3-(trifluoromethoxy)phenyl)-5,7-diazaspiro[3.4]octan-5-yl)benzonitrile] | > 6.00 | 
13 | CCCCC1(O)CN(c2ccc(Br)cc2)C(=O)N1c1ccc(Br)cc1 (centres unmarked) [Example 6, 1,3-bis(4-bromophenyl)-4-butyl-4-hydroxyimidazolidin-2-one] |  | < 4.30
14 | CC1(c2ccccc2)N(c2ccc(Cl)cc2)C(=O)N(c2ccc(Cl)cc2)C1(O)c1ccccc1 (centres unmarked) [Compound 121, 1,3-bis(4-chlorophenyl)-4-hydroxy-5-methyl-4,5-diphenylimidazolidin-2-one] |  | 5.00 to 6.00
15 | O=C1N(c2ccc(Cl)cc2)C2(CCOC2)C(O)(c2cccc(OC(F)(F)F)c2)N1c1ccc(Cl)cc1 (centres unmarked) [Compound 234, 1,3-bis(4-chlorophenyl)-4-hydroxy-4-(3-(trifluoromethoxy)phenyl)-7-oxa-1,3-diazaspiro[4.4]nonan-2-one] |  | > 6.00
16 | O=C1N(c2ccc(Cl)cc2)C(C2COC2)C(O)(c2cccc(OC(F)(F)F)c2)N1c1ccc(Cl)cc1 (centres unmarked) [Compound 237, 1,3-bis(4-chlorophenyl)-4-hydroxy-5-(oxetan-3-yl)-4-(3-(trifluoromethoxy)phenyl)imidazolidin-2-one] |  | > 6.00
17 | C#Cc1cccc(C2(O)CN(c3ccc(Cl)cc3)C(=O)N2c2ccc(Cl)cc2)c1 (centres unmarked) [Compound 60, 1,3-bis(4-chlorophenyl)-4-(3-ethynylphenyl)-4-hydroxyimidazolidin-2-one] |  | > 6.00
18 | CC[C@]1(C)C(c2cccc(OC(F)(F)F)c2)N(c2ccc(C#N)cc2)C(=O)N1c1ccc(C#N)cc1 (stereo partly drawn) [Example 51-1, 4,4′-((4R)-4-ethyl-4-methyl-2-oxo-5-(3-(trifluoromethoxy)phenyl)imidazolidine-1,3-diyl)dibenzonitrile] |  | 5.00 to 6.00
19 | O=C1N(c2ccc(Cl)cc2)CC(O)(c2cccc(C3CC3)c2)N1c1ccc(Cl)cc1 (centres unmarked) [Compound 78, 1,3-bis(4-chlorophenyl)-4-(3-cyclopropylphenyl)-4-hydroxyimidazolidin-2-one] |  | 5.00 to 6.00
20 | COc1ccc(C2(O)C(=O)N(c3ccc(Br)cc3)C(=O)N2c2ccc(Br)cc2)nc1 (centres unmarked) [Example 208, 1,3-bis(4-bromophenyl)-5-hydroxy-5-(5-methoxypyridin-2-yl)imidazolidine-2,4-dione] |  | 4.00 to 4.30
21 | O=C1N(c2ccc(Br)cc2)C(=O)C(O)(c2ccc(OC3CCC3)cc2)N1c1ccc(Br)cc1 (centres unmarked) [Example 174, 1,3-bis(4-bromophenyl)-5-(4-cyclobutoxyphenyl)-5-hydroxyimidazolidine-2,4-dione] |  | < 4.30
22 | O=C1N(c2ccc(Br)cc2)CC(O)(c2ccc(Cl)s2)N1c1ccc(Br)cc1 (centres unmarked) [Example 5, 1,3-bis(4-bromophenyl)-4-(5-chlorothiophen-2-yl)-4-hydroxyimidazolidin-2-one] |  | 4.30 to 5.00
23 | CC1N(c2ccc(Cl)cc2)C(=O)N(c2ccc(Cl)cc2)C1(O)c1cccc(C#N)c1 (centres unmarked) [Compound 99, 3-(1,3-bis(4-chlorophenyl)-4-hydroxy-5-methyl-2-oxoimidazolidin-4-yl)benzonitrile] |  | > 6.00
24 | CC1(C(F)(F)F)N(c2ccc(Cl)cc2)C(=O)N(c2ccc(Cl)cc2)C1(O)c1cc(C#N)cc(C#N)c1 (racemic) [Example 331, 5-((5S)-1,3-bis(4-chlorophenyl)-4-hydroxy-5-methyl-2-oxo-5-(trifluoromethyl)imidazolidin-4-yl)isophthalonitrile and 5-((5R)-1,3-bis(4-chlorophenyl)-4-hydroxy-5-methyl-2-oxo-5-(trifluoromethyl)imidazolidin-4-yl)isophthalonitrile] | > 6.00 | 
25 | C[C@H]1N(c2ccc(Cl)cc2)C(=O)N(c2ccc(Cl)cc2)C1(O)c1cccc(C(F)(F)F)c1 (stereo partly drawn) [Compound 77-2, (5R)-1,3-bis(4-chlorophenyl)-4-hydroxy-5-methyl-4-(3-(trifluoromethyl)phenyl)imidazolidin-2-one] |  | > 6.00
26 | COc1ccc(C2(O)CN(c3ccc(Br)cc3)C(=O)N2c2ccc(Br)cc2)cn1 (centres unmarked) [Example 54, 1,3-bis(4-bromophenyl)-4-hydroxy-4-(6-methoxypyridin-3-yl)imidazolidin-2-one] |  | < 4.30
27 | CCc1c(-c2cccc(C#N)c2)n(-c2ccc(Cl)cc2)c(=O)n1-c1ccc(Cl)cc1 [Compound 258, 3-(1,3-bis(4-chlorophenyl)-5-ethyl-2-oxo-2,3-dihydro-1H-imidazol-4-yl)benzonitrile] |  | > 6.00
28 | CCC1(O)CN(c2ccc(Br)cc2)C(=O)N1c1ccc(Br)cc1 (centres unmarked) [Example 4, 1,3-bis(4-bromophenyl)-4-ethyl-4-hydroxyimidazolidin-2-one] |  | 4.30 to 5.00
29 | CCCc1c(-c2cccc(OC(F)(F)F)c2)n(-c2ccc(Cl)cc2)c(=O)n1-c1ccc(Cl)cc1 [Compound 245, 1,3-bis(4-chlorophenyl)-4-propyl-5-(3-(trifluoromethoxy)phenyl)-1,3-dihydro-2H-imidazol-2-one] |  | > 6.00
30 | CC1(C)N(c2ccc(C(F)(F)F)cc2)C(=O)N(c2ccc(C(F)(F)F)cc2)C1(O)c1cccc(C#N)c1 (centres unmarked) [Example 192, 3-(4-hydroxy-5,5-dimethyl-2-oxo-1,3-bis(4-(trifluoromethyl)phenyl)-imidazolidin-4-yl)benzonitrile] |  | > 6.00
31 | N#Cc1cccc(C2(O)C(CC3CC3)N(c3ccc(Cl)cc3)C(=O)N2c2ccc(Cl)cc2)c1 (centres unmarked) [Compound 132, 3-(1,3-bis(4-chlorophenyl)-5-(cyclopropylmethyl)-4-hydroxy-2-oxoimidazolidin-4-yl)benzonitrile] |  | > 6.00
32 | O=C1N(c2ccc(Br)cc2)C(=O)C(O)(C2Cc3ccccc3C2)N1c1ccc(Br)cc1 (centres unmarked) [Example 215, 1,3-bis(4-bromophenyl)-5-(2,3-dihydro-1H-inden-2-yl)-5-hydroxyimidazolidine-2,4-dione] |  | 4.00 to 4.30
33 | CCCC1(C)N(c2ccc(Cl)cc2)C(=O)N(c2ccc(Cl)cc2)C1(O)c1cccc(OC(F)(F)F)c1 (centres unmarked) [Example 170, 1,3-bis(4-chlorophenyl)-4-hydroxy-5-methyl-5-propyl-4-(3-(trifluoromethoxy)phenyl)imidazolidin-2-one] |  | > 6.00
34 | Cc1ccc(N2CC(O)(c3ccccc3)N(c3ccc(C)cc3)C2=O)cc1 (centres unmarked) [Example 17, 4-hydroxy-4-phenyl-1,3-di-p-tolylimidazolidin-2-one] |  | 5.00 to 6.00
35 | O=C1N(c2ccc(Cl)cc2)C2(CC(F)C2)C(O)(c2cccc(OC(F)(F)F)c2)N1c1ccc(Cl)cc1 (centres unmarked) [Compound 240, 5,7-bis(4-chlorophenyl)-2-fluoro-8-hydroxy-8-(3-(trifluoromethoxy)phenyl)-5,7-diazaspiro[3.4]octan-6-one] |  | > 6.00
